# Test results: ChEMBL document CHEMBL3045592, “Studies of O,O-dimethyl α-(2,4-dichlorophenoxyacetoxy)ethylphosphonate (HW02) as a new herbicide. 1. Synthesis and herbicidal activity of HW02 and analogues as novel inhibitors of pyruvate dehydrogenase complex” (J Agric Food Chem, 2011)
# How the values were obtained:
# Cucumis sativus [1] = experiment: Herbicidal activity against Cucumis sativus Jin 4 (cucumber) assessed as inhibition of stem growth after 3 days; type: functional, organism-based; settings: Jin 4, 72 h
# Medicago sativa [2] = experiment: Post-emergence herbicidal activity against Medicago sativa (alfalfa) assessed as growth inhibition at 1500 ai g/ha after 20 days by green house test; type: functional
# Amaranthus retroflexus [3] = experiment: Post-emergence herbicidal activity against Amaranthus retroflexus assessed as growth inhibition at 1500 ai g/ha after 20 days by green house test; type: functional
# [4] = test system: Brassica rapa subsp. oleifera; experiment: Post-emergence herbicidal activity against Brassica rapa subsp. oleifera Si Yue Man assessed as growth inhibition at 1500 ai g/ha after 20 days by green house test; type: functional
# Digitaria sanguinalis [5] = experiment: Post-emergence herbicidal activity against Digitaria sanguinalis (hairy crabgrass) assessed as growth inhibition at 1500 ai g/ha after 20 days by green house test; type: functional
# Echinochloa crus-galli [6] = experiment: Post-emergence herbicidal activity against Echinochloa crus-galli (barnyard grass) assessed as growth inhibition at 1500 ai g/ha after 20 days by green house test; type: functional
# Medicago sativa [7] = experiment: Pre-emergence herbicidal activity against Medicago sativa (alfalfa) assessed as growth inhibition at 1500 ai g/ha after 20 days by green house test; type: functional
# Amaranthus retroflexus [8] = experiment: Pre-emergence herbicidal activity against Amaranthus retroflexus assessed as growth inhibition at 1500 ai g/ha after 20 days by green house test; type: functional
# [9] = test system: Brassica rapa subsp. oleifera; experiment: Pre-emergence herbicidal activity against Brassica rapa subsp. oleifera Si Yue Man assessed as growth inhibition at 1500 ai g/ha after 20 days by green house test; type: functional
# Digitaria sanguinalis [10] = experiment: Pre-emergence herbicidal activity against Digitaria sanguinalis (hairy crabgrass) assessed as growth inhibition at 1500 ai g/ha after 20 days by green house test; type: functional
# Echinochloa crus-galli [11] = experiment: Pre-emergence herbicidal activity against Echinochloa crus-galli (barnyard grass) assessed as growth inhibition at 1500 ai g/ha after 20 days by green house test; type: functional
# Cucumis sativus [12] = experiment: Herbicidal activity against Cucumis sativus Jin 4 (cucumber) assessed as inhibition of root growth after 3 days; type: functional, organism-based; settings: Jin 4, 72 h
# Digitaria sanguinalis [13] = experiment: Pre-emergence herbicidal activity against Digitaria sanguinalis (hairy crabgrass) assessed as growth inhibition at 450 ai g/ha after 20 days by green house test; type: functional
# Digitaria sanguinalis [14] = experiment: Pre-emergence herbicidal activity against Digitaria sanguinalis (hairy crabgrass) assessed as growth inhibition at 150 ai g/ha after 20 days by green house test; type: functional
# Chenopodium album [15] = experiment: Post-emergence herbicidal activity against Chenopodium album assessed as growth inhibition at 450 ai g/ha after 20 days by green house test; type: functional
# Chenopodium album [16] = experiment: Post-emergence herbicidal activity against Chenopodium album assessed as growth inhibition at 150 ai g/ha after 20 days by green house test; type: functional
# Chenopodium album [17] = experiment: Pre-emergence herbicidal activity against Chenopodium album assessed as growth inhibition at 450 ai g/ha after 20 days by green house test; type: functional
# Chenopodium album [18] = experiment: Pre-emergence herbicidal activity against Chenopodium album assessed as growth inhibition at 150 ai g/ha after 20 days by green house test; type: functional
# Amaranthus spinosus [19] = experiment: Post-emergence herbicidal activity against Amaranthus spinosus assessed as growth inhibition at 450 ai g/ha after 20 days by green house test; type: functional
# Amaranthus spinosus [20] = experiment: Post-emergence herbicidal activity against Amaranthus spinosus assessed as growth inhibition at 150 ai g/ha after 20 days by green house test; type: functional
# Abutilon theophrasti [21] = experiment: Pre-emergence herbicidal activity against Abutilon theophrasti (velvetleaf) assessed as growth inhibition at 450 ai g/ha after 20 days by green house test; type: functional
# Abutilon theophrasti [22] = experiment: Pre-emergence herbicidal activity against Abutilon theophrasti (velvetleaf) assessed as growth inhibition at 150 ai g/ha after 20 days by green house test; type: functional
# Amaranthus spinosus [23] = experiment: Pre-emergence herbicidal activity against Amaranthus spinosus assessed as growth inhibition at 450 ai g/ha after 20 days by green house test; type: functional
# Amaranthus spinosus [24] = experiment: Pre-emergence herbicidal activity against Amaranthus spinosus assessed as growth inhibition at 150 ai g/ha after 20 days by green house test; type: functional
# Abutilon theophrasti [25] = experiment: Post-emergence herbicidal activity against Abutilon theophrasti (velvetleaf) assessed as growth inhibition at 450 ai g/ha after 20 days by green house test; type: functional
# Abutilon theophrasti [26] = experiment: Post-emergence herbicidal activity against Abutilon theophrasti (velvetleaf) assessed as growth inhibition at 150 ai g/ha after 20 days by green house test; type: functional
# Setaria viridis [27] = experiment: Post-emergence herbicidal activity against Setaria viridis (green foxtail) assessed as growth inhibition at 450 ai g/ha after 20 days by green house test; type: functional
# Setaria viridis [28] = experiment: Post-emergence herbicidal activity against Setaria viridis (green foxtail) assessed as growth inhibition at 150 ai g/ha after 20 days by green house test; type: functional
# Setaria viridis [29] = experiment: Pre-emergence herbicidal activity against Setaria viridis (green foxtail) assessed as growth inhibition at 450 ai g/ha after 20 days by green house test; type: functional
# Setaria viridis [30] = experiment: Pre-emergence herbicidal activity against Setaria viridis (green foxtail) assessed as growth inhibition at 150 ai g/ha after 20 days by green house test; type: functional
# Digitaria sanguinalis [31] = experiment: Post-emergence herbicidal activity against Digitaria sanguinalis (hairy crabgrass) assessed as growth inhibition at 450 ai g/ha after 20 days by green house test; type: functional
# Digitaria sanguinalis [32] = experiment: Post-emergence herbicidal activity against Digitaria sanguinalis (hairy crabgrass) assessed as growth inhibition at 150 ai g/ha after 20 days by green house test; type: functional
compound,measurement,setting,value
CCC(OC(=O)COc1ccc(Cl)cc1Cl)P(=O)(OC)OC (stereo not given),IC50,Cucumis sativus [1],14 µM
same,growth inhibition (GI),Medicago sativa [2],90%
same,growth inhibition (GI),Amaranthus retroflexus [3],90%
same,growth inhibition (GI),[4],90%
same,growth inhibition (GI),Digitaria sanguinalis [5],50%
same,growth inhibition (GI),Echinochloa crus-galli [6],50%
same,growth inhibition (GI),Medicago sativa [7],90%
same,growth inhibition (GI),Amaranthus retroflexus [8],90%
same,growth inhibition (GI),[9],90%
same,growth inhibition (GI),Digitaria sanguinalis [10],75%
same,growth inhibition (GI),Echinochloa crus-galli [11],75%
same,IC50,Cucumis sativus [12],0.327 µM
CCCOP(=O)(OCCC)C(OC(=O)C(C)Oc1ccc(Cl)cc1Cl)c1ccccc1Cl (stereo not given),IC50,Cucumis sativus [1],164 µM
same,IC50,Cucumis sativus [12],12.1 µM
CCCOP(=O)(OCCC)C(C)OC(=O)C(C)Oc1ccc(Cl)cc1Cl (stereo not given),IC50,Cucumis sativus [1],18 µM
same,IC50,Cucumis sativus [12],2.44 µM
CCOP(=O)(OCC)C(CC)OC(=O)COc1ccc(Cl)cc1Cl (stereo not given),IC50,Cucumis sativus [1],25.7 µM
same,IC50,Cucumis sativus [12],0.31 µM
CCOP(=O)(COC(=O)COc1ccc(Cl)cc1Cl)OCC,IC50,Cucumis sativus [1],13.4 µM
CCCC(OC(=O)C(C)Oc1ccc(Cl)cc1Cl)P(=O)(OC)OC (stereo not given),IC50,Cucumis sativus [1],13.7 µM
same,IC50,Cucumis sativus [12],2.98 µM
CCCOP(=O)(OCCC)C(OC(=O)C(C)Oc1ccc(Cl)cc1Cl)c1ccccc1 (stereo not given),IC50,Cucumis sativus [1],44.3 µM
same,IC50,Cucumis sativus [12],4.52 µM
COP(=O)(OC)C(C)OC(=O)COc1ccc(Cl)cc1C (stereo not given),growth inhibition (GI),Digitaria sanguinalis [13],16%
same,growth inhibition (GI),Digitaria sanguinalis [14],0%
same,growth inhibition (GI),Chenopodium album [15],80%
same,growth inhibition (GI),Chenopodium album [16],60%
same,growth inhibition (GI),Chenopodium album [17],0%
same,growth inhibition (GI),Chenopodium album [18],0%
same,growth inhibition (GI),Amaranthus spinosus [19],100%
same,growth inhibition (GI),Amaranthus spinosus [20],10%
same,growth inhibition (GI),Abutilon theophrasti [21],0%
same,growth inhibition (GI),Abutilon theophrasti [22],0%
same,growth inhibition (GI),Medicago sativa [2],50%
same,growth inhibition (GI),Amaranthus retroflexus [3],90%
same,growth inhibition (GI),[4],90%
same,growth inhibition (GI),Digitaria sanguinalis [5],50%
same,growth inhibition (GI),Echinochloa crus-galli [6],50%
same,growth inhibition (GI),Medicago sativa [7],90%
same,growth inhibition (GI),Amaranthus retroflexus [8],90%
same,growth inhibition (GI),[9],90%
same,growth inhibition (GI),Digitaria sanguinalis [10],90%
same,growth inhibition (GI),Echinochloa crus-galli [11],90%
same,growth inhibition (GI),Amaranthus spinosus [23],30%
same,growth inhibition (GI),Amaranthus spinosus [24],0%
same,growth inhibition (GI),Abutilon theophrasti [25],96%
same,growth inhibition (GI),Abutilon theophrasti [26],82%
same,growth inhibition (GI),Setaria viridis [27],0%
same,growth inhibition (GI),Setaria viridis [28],0%
same,growth inhibition (GI),Setaria viridis [29],0%
same,growth inhibition (GI),Setaria viridis [30],0%
same,growth inhibition (GI),Digitaria sanguinalis [31],10%
same,growth inhibition (GI),Digitaria sanguinalis [32],0%
COP(=O)(OC)C(C)OC(=O)C(C)Oc1ccc(Cl)cc1Cl (stereo not given),IC50,Cucumis sativus [1],6.74 µM
same,IC50,Cucumis sativus [12],1.42 µM
